The values that follow come from ChEMBL document CHEMBL4257227, “Deubiquitinase inhibitors and methods for use of the same” (2016).

SMILES strings stand for the structures. Activity calls are given as the source filed them. The calls are words filed in the database; no cut-off is given here.

In data set [1] the target is Ubiquitin carboxyl-terminal hydrolase 9X (Homo sapiens) (UniProt Q93008). As to the kind of experiment: Inhibition of Usp9x in human MM1.S cells assessed as reduction in MCL-1 protein levels at 5 uM incubated for 5 to 240 mins by SDS-PAGE and immunoblotting. Format: cell-based.
Ubiquitin carboxyl-terminal hydrolase 9X (Homo sapiens), sequence (Q93008 whole entry): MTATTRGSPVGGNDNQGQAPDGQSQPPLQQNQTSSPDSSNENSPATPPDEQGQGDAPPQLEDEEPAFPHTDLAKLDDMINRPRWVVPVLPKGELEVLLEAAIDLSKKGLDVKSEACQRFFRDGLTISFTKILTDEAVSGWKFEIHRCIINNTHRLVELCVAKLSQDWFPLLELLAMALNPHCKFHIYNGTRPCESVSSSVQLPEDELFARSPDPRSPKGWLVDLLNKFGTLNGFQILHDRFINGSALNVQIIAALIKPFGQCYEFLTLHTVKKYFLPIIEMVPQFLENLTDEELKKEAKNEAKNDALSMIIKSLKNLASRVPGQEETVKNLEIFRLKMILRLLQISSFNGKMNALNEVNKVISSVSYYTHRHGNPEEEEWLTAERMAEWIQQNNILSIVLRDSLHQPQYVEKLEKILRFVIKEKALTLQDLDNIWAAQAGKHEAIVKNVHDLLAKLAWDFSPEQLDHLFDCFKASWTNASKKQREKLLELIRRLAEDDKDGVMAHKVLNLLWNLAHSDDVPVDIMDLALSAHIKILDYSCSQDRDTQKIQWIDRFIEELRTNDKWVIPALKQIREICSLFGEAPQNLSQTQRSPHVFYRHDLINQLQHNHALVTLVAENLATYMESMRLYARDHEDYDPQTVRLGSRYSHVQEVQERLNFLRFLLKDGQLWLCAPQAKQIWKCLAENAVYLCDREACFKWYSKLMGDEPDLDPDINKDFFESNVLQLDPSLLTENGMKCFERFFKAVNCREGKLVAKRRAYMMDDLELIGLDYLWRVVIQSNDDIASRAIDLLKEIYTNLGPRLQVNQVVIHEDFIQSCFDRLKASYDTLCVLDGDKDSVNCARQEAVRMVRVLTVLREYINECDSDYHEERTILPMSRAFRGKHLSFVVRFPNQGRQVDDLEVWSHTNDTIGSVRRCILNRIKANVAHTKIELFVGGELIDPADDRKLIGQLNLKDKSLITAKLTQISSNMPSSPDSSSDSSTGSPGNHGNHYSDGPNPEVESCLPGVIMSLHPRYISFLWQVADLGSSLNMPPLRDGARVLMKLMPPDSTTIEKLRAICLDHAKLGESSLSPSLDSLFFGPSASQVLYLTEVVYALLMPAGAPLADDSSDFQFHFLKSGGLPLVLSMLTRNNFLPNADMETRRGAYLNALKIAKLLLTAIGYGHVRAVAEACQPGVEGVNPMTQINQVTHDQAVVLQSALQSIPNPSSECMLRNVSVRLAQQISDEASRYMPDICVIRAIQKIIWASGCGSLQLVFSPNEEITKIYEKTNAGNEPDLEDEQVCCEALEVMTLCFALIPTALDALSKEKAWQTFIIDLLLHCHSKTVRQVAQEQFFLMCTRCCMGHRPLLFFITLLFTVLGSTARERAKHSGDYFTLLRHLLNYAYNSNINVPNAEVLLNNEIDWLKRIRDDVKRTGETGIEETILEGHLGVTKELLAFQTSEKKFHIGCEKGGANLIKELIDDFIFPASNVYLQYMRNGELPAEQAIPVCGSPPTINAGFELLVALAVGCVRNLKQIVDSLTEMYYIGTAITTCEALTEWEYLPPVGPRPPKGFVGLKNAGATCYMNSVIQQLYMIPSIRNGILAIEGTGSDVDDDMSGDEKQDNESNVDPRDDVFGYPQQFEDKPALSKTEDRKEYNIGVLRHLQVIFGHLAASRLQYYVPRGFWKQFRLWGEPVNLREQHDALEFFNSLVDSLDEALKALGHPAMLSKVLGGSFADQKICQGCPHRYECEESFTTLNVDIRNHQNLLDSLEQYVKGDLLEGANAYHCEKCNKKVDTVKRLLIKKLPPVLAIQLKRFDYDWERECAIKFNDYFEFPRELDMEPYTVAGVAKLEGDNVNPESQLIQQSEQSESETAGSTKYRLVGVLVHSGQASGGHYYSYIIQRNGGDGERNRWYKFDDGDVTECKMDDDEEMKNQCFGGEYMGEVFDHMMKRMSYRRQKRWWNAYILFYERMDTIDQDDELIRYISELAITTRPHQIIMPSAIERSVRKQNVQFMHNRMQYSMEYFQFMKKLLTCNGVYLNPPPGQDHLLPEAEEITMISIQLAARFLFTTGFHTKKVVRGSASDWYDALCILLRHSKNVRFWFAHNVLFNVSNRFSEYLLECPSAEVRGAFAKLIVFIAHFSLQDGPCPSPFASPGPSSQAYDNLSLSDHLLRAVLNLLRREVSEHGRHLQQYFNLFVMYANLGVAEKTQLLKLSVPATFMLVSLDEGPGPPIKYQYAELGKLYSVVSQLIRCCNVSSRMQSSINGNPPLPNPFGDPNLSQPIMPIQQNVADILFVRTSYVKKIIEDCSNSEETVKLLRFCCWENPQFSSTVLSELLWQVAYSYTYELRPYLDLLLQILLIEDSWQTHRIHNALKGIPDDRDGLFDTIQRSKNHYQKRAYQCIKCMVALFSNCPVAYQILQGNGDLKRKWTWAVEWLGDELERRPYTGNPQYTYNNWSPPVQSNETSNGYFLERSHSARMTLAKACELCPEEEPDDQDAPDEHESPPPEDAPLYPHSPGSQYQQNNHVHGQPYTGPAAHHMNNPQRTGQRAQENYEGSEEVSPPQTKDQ
Data set [2] has as its target T1, Ubiquitin carboxyl-terminal hydrolase 5 (Homo sapiens) (UniProt P45974).
T1 sequence (whole entry): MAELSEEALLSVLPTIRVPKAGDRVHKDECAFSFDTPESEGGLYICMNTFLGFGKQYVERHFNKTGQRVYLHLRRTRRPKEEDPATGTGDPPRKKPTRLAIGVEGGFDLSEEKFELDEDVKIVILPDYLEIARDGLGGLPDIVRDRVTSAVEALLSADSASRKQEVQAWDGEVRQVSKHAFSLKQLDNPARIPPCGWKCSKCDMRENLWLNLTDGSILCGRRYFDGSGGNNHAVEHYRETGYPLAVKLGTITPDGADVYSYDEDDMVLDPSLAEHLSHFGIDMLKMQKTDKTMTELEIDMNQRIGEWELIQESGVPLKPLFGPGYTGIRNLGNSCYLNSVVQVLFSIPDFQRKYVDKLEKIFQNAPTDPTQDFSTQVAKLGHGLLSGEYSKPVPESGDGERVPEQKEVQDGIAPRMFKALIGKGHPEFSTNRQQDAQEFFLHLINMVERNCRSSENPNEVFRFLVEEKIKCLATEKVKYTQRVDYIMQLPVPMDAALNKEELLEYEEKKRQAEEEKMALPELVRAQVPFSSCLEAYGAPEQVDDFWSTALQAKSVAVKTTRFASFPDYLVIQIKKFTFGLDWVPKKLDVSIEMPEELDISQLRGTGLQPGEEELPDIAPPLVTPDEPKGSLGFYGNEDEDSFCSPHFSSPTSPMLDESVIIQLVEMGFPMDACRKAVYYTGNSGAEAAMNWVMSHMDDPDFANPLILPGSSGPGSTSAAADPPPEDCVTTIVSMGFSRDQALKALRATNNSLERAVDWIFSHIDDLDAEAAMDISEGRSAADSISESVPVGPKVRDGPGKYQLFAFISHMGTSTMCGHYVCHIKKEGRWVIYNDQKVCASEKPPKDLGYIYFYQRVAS
As to the kind of experiment: Inhibition of USP5 in Vemurafenib […] human A375R cells assessed as reduction in ERK phosphorylation.

For data set [3], the target named is Ubiquitin carboxyl-terminal hydrolase 9X (Homo sapiens) (UniProt Q93008). As to the kind of experiment: Inhibition of USP9x in Vemurafenib sensitive human A375 cells assessed as STAT3 phosphorylation.
Data set [4] in a line: Plasma concentration in Balb/c mouse at 10 mg/kg, iv after 7 hrs by LC-MS analysis. Format: ADME, organism-based.
A short description of data set [5]: Plasma concentration in Balb/c mouse at 10 mg/kg, iv after 4 hrs by LC-MS analysis. The data set is classed as ADME, organism-based.
Data set [6] concerns MM1.S. Put plainly: Antitumor activity against human MM1S cells xenografted in NOD/SCID/gamma-2 knockout mouse assessed as inhibition of tumor growth at 2.5 to 10 mg/kg, ip once per day for 14 days. The data set is classed as functional, organism-based.
The test system of data set [7] is Mus musculus. Put plainly: Toxicity in human MM1S cells xenografted NOD/SCID/gamma-2 knockout mouse assessed effect on body weight at 15 to 20 mg/kg, ip once per day for 14 days. The data set is classed as functional, organism-based.
Data set [8] has as its system A-375. As to the kind of experiment: Antitumor activity against human A375 cells xenografted in NOD/SCID/gamma-2 knockout mouse assessed as inhibition of tumor growth at 15 mg/kg, ip once per day for 8 days. The data set is classed as functional, organism-based.
Data set [9] relates to MM1.S. Put plainly: Antitumor activity against human MM1S cells xenografted in NOD/SCID/gamma-2 knockout mouse assessed as inhibition of tumor growth at 5 to 20 mg/kg, ip once per day for 14 days. The data set is classed as functional, organism-based.
Data set [10] concerns Mus musculus. Put plainly: Toxicity in human A375 cells xenografted NOD/SCID/gamma-2 knockout mouse assessed effect on body weight at 15 mg/kg, ip once per day for 8 days. Format: functional, organism-based.
Data set [11] is described as follows: AUClast in Balb/c mouse at 10 mg/kg, iv by LC-MS analysis. The data set is classed as ADME, organism-based. Details: dose 10 mg/kg, route intravenous, time 0 - last. The note with it: in vivo.
Data set [12] deals with MM1.S. As to the kind of experiment: Induction of apoptosis in human MM1S cells at 0.3125 to 5 uM incubated for 24 hrs by annexin V staining based flow cytometry. The data set is classed as functional, cell-based.
Data set [13] concerns MM1.S. Put plainly: Antitumor activity against human MM1S cells xenografted in NOD/SCID/gamma-2 knockout mouse assessed as inhibition of tumor volume at 5 to 20 mg/kg, ip once per day for 11 days. The data set is classed as functional, organism-based.
The nature of data set [14]: Plasma concentration in Balb/c mouse at 10 mg/kg, iv after 2 hrs by LC-MS analysis. The data set is classed as ADME, organism-based.
In data set [15] the target is T1, Ubiquitin carboxyl-terminal hydrolase 5 (Homo sapiens). Put plainly: Inhibition of USP5 in Vemurafenib […] human A375R cells assessed as reduction in STAT3 phosphorylation.
In data set [16] the test system is A-375. Put plainly: Induction of p53 protein expression in Vemurafenib sensitive human A375 cells. The data set is classed as functional, cell-based.
Data set [17] relates to CD34-positive blood stem/progenitor cell. Put plainly: Induction of apoptosis in human CD34+ cells at 0.3125 to 5 uM incubated for 24 hrs by annexin V staining based flow cytometry. The note with it: cd34-positive (myeloid/lymphoid) cell.
The target in data set [18] is Ubiquitin carboxyl-terminal hydrolase 9X (Homo sapiens) (UniProt Q93008). Put plainly: Inhibition of Usp9x in human MM1.S cells assessed as reduction in caspase activity by measuring cleaved PARP protein levels at 5 uM incubated for 5 to 240 mins by SDS-PAGE and immunoblotting. Format: cell-based.
In another data set the test system is NCI-H929. Put plainly: Induction of apoptosis in human NCI-H929 cells at 0.3125 to 5 uM incubated for 24 hrs by annexin V staining based flow cytometry. The data set is classed as functional, cell-based.
Data set [19] in a line: Plasma concentration in Balb/c mouse at 30 mg/kg, po after 2 hrs by LC-MS analysis. The data set is classed as ADME, organism-based.
The target of data set [20] is Ubiquitin carboxyl-terminal hydrolase 9X (Homo sapiens) (UniProt Q93008). As to the kind of experiment: Inhibition of USP9x in Vemurafenib resistant human A375 cells.
The nature of data set [21]: Plasma concentration in Balb/c mouse at 10 mg/kg, iv after 0.5 hrs by LC-MS analysis. The data set is classed as ADME, organism-based.

In the case of `CCCC(NC(=O)/C(C#N)=C/c1nc(Cl)ccc1Cl)c1ccc(OCCN2CCOCC2)cc1` (configuration not stated), the inhibition entry in data set [1], in data set [2], in [3], in data set [15], in data set [18] and in [20] was “Active” in each case. The same molecule had a concentration at 7 h in data set [4] of 38.6 to 208 ng/mL. This molecule displayed a concentration at 4 h in [5] of 126 to 289 ng/mL. Also, the TGI entry with MM1.S [6], in the data set with A-375 [8] and in the data set with MM1.S [9] was “Active” throughout. In addition, the Activity entry in the data set with Mus musculus [7] was “Toxic”; with Mus musculus [10] it was “Not toxic”; in data set [17] it was “Non-Toxic”. Also, the area under the curve AUC(0-t) in data set [11] was in the range of 3570 to 3730 ng·h/mL. Moreover, the result with MM1.S [12], in the data set on MM1.S [13] and in the data set on NCI-H929 was Active. For the same molecule, the concentration at 2 h in data set [14] was in the range of 395 to 520 ng/mL; in [19], 35.8 to 59 ng/mL. The outcome in the data set with A-375 [16] was inactive. Further, the concentration at 0.5 h in data set [21] lay in the range of 1220 to 1880 ng/mL.
